Legend:
[1] = target: SHP-2 enzyme (Met1-Leu525) (Homo sapiens (Human), UniProt Q06124); test: SHP2 inhibition enzymatic assay; assay type: biochemical; conditions: 0.5 nM SHP-2 activated by 500 nM IRS1 peptide, 75 μM DiFMUP substrate; read-out: SHP2wt-IC50
In short: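 SHP-2 (Met1-Leu525), 0.5 nM, activated with 500 nM IRS1 bis-phosphopeptide, preincubated 30 min with compounds in HEPES pH 7.2 buffer with 5 mM DTT. 75 μM DiFMUP added for 30 min at room temperature, stopped with bpV; fluorescence read. IC50 from four-parameter logistic fit of % inhibition.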

[2] = test system: ERK phosphorylation in KYSE-520 cells; test: Phospho-ERK cellular assay; assay type: cell-based; conditions: Homo sapiens, KYSE-520, 2 h, KYSE-520 cells, 2 h at 37° C., phospho-ERK1/2 (Thr202/Tyr204) TR-FRET; read-out: PERK IC50
In short: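 TR-FRET read-out of ERK1/2 Thr202/Tyr204 phosphorylation was taken after overnight antibody incubation at room temperature. Before that, KYSE-520 cells were treated 2 h at 37 °C with compound dilutions and lysed 30 min. Percent inhibition relative to vehicle and cell-free wells was fitted four-parametrically to give IC50.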

SHP-2 enzyme (Met1-Leu525), sequence (Q06124 1-525): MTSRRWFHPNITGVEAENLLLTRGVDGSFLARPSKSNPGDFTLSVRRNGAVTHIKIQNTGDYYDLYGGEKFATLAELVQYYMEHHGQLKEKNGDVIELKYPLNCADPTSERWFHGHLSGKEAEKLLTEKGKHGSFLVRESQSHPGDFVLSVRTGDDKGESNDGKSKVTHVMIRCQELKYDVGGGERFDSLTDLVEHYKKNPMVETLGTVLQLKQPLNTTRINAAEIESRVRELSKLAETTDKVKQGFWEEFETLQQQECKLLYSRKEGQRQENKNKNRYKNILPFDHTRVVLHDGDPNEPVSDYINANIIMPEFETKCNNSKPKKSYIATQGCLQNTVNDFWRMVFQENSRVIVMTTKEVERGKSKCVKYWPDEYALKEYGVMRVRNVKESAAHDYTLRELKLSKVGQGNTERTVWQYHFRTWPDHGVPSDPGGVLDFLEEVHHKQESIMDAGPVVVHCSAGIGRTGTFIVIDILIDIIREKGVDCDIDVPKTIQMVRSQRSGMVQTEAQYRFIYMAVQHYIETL

IC50 [1] | IC50 [2] | SMILES
< 500 nM | < 1000 nM | Cn1c(=O)n(C)c2cc(-c3n[nH]c4nc(N5CC[C@@H]6[C@H](C5)[C@@]6(CN)c5ccccc5F)cnc34)ccc21 [Example 232, 5-(6-((1S,6R,7R)-7-(aminomethyl)-7-(2-fluorophenyl)-3-azabicyclo[4.1.0]heptan-3-yl)-1H-pyrazolo[3,4-b]pyrazin-3-yl)-1,3-dimethyl-1,3-dihydro-2H-benzo[d]imidazol-2-one]
< 500 nM | < 1000 nM | NC[C@]1(c2ccccc2F)[C@@H]2CCN(c3cnc4c(-c5ccc6c(c5)NC(=O)C6)n[nH]c4n3)C[C@@H]21 [Example 233, 6-(6-((1S,6R,7R)-7-(aminomethyl)-7-(2-fluorophenyl)-3-azabicyclo[4.1.0]heptan-3-yl)-1H-pyrazolo[3,4-b]pyrazin-3-yl)indolin-2-one]
< 500 nM | < 1000 nM | NC[C@]1(c2ccccc2F)[C@@H]2CCN(c3cnc4c(-c5ccc6[nH]c(=O)ccc6c5)n[nH]c4n3)C[C@@H]21 [Example 234, 6-(6-((1S,6R,7R)-7-(aminomethyl)-7-(2-fluorophenyl)-3-azabicyclo[4.1.0]heptan-3-yl)-1H-pyrazolo[3,4-b]pyrazin-3-yl)quinolin-2(1H)-one]
< 500 nM | > 5000 nM | NC[C@]1(c2ccccc2F)[C@@H]2CCN(c3cnc4c(-c5cc6ccccc6c(=O)[nH]5)n[nH]c4n3)C[C@@H]21 [Example 235, 3-(6-((1S,6R,7R)-7-(aminomethyl)-7-(2-fluorophenyl)-3-azabicyclo[4.1.0]heptan-3-yl)-1H-pyrazolo[3,4-b]pyrazin-3-yl)isoquinolin-1(2H)-one]
< 500 nM | < 1000 nM | NC[C@]1(c2ccccc2F)[C@@H]2CCN(c3cnc4c(-c5ccc(F)c6[nH]c(=O)ccc56)n[nH]c4n3)C[C@@H]21 [Example 236, 5-(6-((1S,6R,7R)-7-(aminomethyl)-7-(2-fluorophenyl)-3-azabicyclo[4.1.0]heptan-3-yl)-1H-pyrazolo[3,4-b]pyrazin-3-yl)-8-fluoroquinolin-2(1H)-one]
< 500 nM | < 1000 nM | NC[C@]1(c2ccccc2F)[C@@H]2CCN(c3cnc4c(-c5ccc6ccc(=O)[nH]c6c5Cl)n[nH]c4n3)C[C@@H]21 [Example 237, 7-(6-((1S,6R,7R)-7-(aminomethyl)-7-(2-fluorophenyl)-3-azabicyclo[4.1.0]heptan-3-yl)-1H-pyrazolo[3,4-b]pyrazin-3-yl)-8-chloroquinolin-2(1H)-one]
< 500 nM | < 1000 nM | NC[C@]1(c2ccccc2F)[C@@H]2CCN(c3cnc4c(-c5ccc6c(c5)CCC(=O)N6)n[nH]c4n3)C[C@@H]21 [Example 238, 6-(6-((1S,6R,7R)-7-(aminomethyl)-7-(2-fluorophenyl)-3-azabicyclo[4.1.0]heptan-3-yl)-1H-pyrazolo[3,4-b]pyrazin-3-yl)-3,4-dihydroquinolin-2(1H)-one]
< 500 nM | < 1000 nM | NC[C@]1(c2ccccc2F)[C@@H]2CCN(c3cnc4c(-c5ccc6[nH]c(=O)[nH]c6c5)n[nH]c4n3)C[C@@H]21 [Example 239, 5-(6-((1S,6R,7R)-7-(aminomethyl)-7-(2-fluorophenyl)-3-azabicyclo[4.1.0]heptan-3-yl)-1H-pyrazolo[3,4-b]pyrazin-3-yl)-1,3-dihydro-2H-benzo[d]imidazol-2-one]
< 500 nM | < 1000 nM | NC[C@]1(c2ccccc2F)[C@@H]2CCN(c3cnc4c(-c5ccc6c(=O)[nH]ccc6c5)n[nH]c4n3)C[C@@H]21 [Example 240, 6-(6-((1S,6R,7R)-7-(aminomethyl)-7-(2-fluorophenyl)-3-azabicyclo[4.1.0]heptan-3-yl)-1H-pyrazolo[3,4-b]pyrazin-3-yl)isoquinolin-1(2H)-one]
< 500 nM | < 1000 nM | NC[C@]1(c2ccccc2F)[C@@H]2CCN(c3cnc4c(-c5ccc(C(N)=O)c(Cl)c5Cl)n[nH]c4n3)C[C@@H]21 [Example 241, 4-(6-((1S,6R,7R)-7-(aminomethyl)-7-(2-fluorophenyl)-3-azabicyclo[4.1.0]heptan-3-yl)-1H-pyrazolo[3,4-b]pyrazin-3-yl)-2,3-dichlorobenzamide]
< 500 nM | < 1000 nM | NC[C@]1(c2ccccc2F)[C@@H]2CCN(c3cnc4c(-c5cccc6ncccc56)n[nH]c4n3)C[C@@H]21 [Example 242, ((1S,6R,7R)-7-(2-fluorophenyl)-3-(3-(quinolin-5-yl)-1H-pyrazolo[3,4-b]pyrazin-6-yl)-3-azabicyclo[4.1.0]heptan-7-yl)methanamine]
< 500 nM | < 1000 nM | NC[C@]1(c2ccccc2F)[C@@H]2CCN(c3cnc4c(-c5ccc6n[nH]cc6c5Cl)n[nH]c4n3)C[C@@H]21 [Example 243, ((1S,6R,7R)-3-(3-(4-chloro-2H-indazol-5-yl)-1H-pyrazolo[3,4-b]pyrazin-6-yl)-7-(2-fluorophenyl)-3-azabicyclo[4.1.0]heptan-7-yl)methanamine]
< 500 nM | < 1000 nM | CN1Cc2cc(-c3n[nH]c4nc(N5CC[C@@H]6[C@H](C5)[C@@]6(CN)c5ccccc5F)cnc34)ccc2C1=O [Example 244, 5-(6-((1S,6R,7R)-7-(aminomethyl)-7-(2-fluorophenyl)-3-azabicyclo[4.1.0]heptan-3-yl)-1H-pyrazolo[3,4-b]pyrazin-3-yl)-2-methylisoindolin-1-one]
< 500 nM | < 1000 nM | N#Cc1ccc(-c2n[nH]c3nc(N4CC[C@@H]5[C@H](C4)[C@@]5(CN)c4ccccc4F)cnc23)c(Cl)c1 [Example 245, 4-(6-((1S,6R,7R)-7-(aminomethyl)-7-(2-fluorophenyl)-3-azabicyclo[4.1.0]heptan-3-yl)-1H-pyrazolo[3,4-b]pyrazin-3-yl)-3-chlorobenzonitrile]
< 500 nM | < 1000 nM | Cc1cc(-c2n[nH]c3nc(N4CC[C@@H]5[C@H](C4)[C@@]5(CN)c4ccccc4F)cnc23)ccc1C(N)=O [Example 246, 4-(6-((1S,6R,7R)-7-(aminomethyl)-7-(2-fluorophenyl)-3-azabicyclo[4.1.0]heptan-3-yl)-1H-pyrazolo[3,4-b]pyrazin-3-yl)-2-methylbenzamide]
< 500 nM | < 1000 nM | NC[C@]1(c2ccccc2F)[C@@H]2CCN(c3cnc4c(-c5ccc6cnccc6c5)n[nH]c4n3)C[C@@H]21 [Example 247, ((1S,6R,7R)-7-(2-fluorophenyl)-3-(3-(isoquinolin-6-yl)-1H-pyrazolo[3,4-b]pyrazin-6-yl)-3-azabicyclo[4.1.0]heptan-7-yl)methanamine]
< 500 nM | < 1000 nM | NC[C@]1(c2ccccc2F)[C@@H]2CCN(c3cnc4c(-c5ccc6ccncc6c5)n[nH]c4n3)C[C@@H]21 [Example 248, ((1S,6R,7R)-7-(2-fluorophenyl)-3-(3-(isoquinolin-7-yl)-1H-pyrazolo[3,4-b]pyrazin-6-yl)-3-azabicyclo[4.1.0]heptan-7-yl)methanamine]
< 500 nM | > 5000 nM | NC[C@]1(c2ccccc2F)[C@@H]2CCN(c3cnc4c(-c5ccc6c(c5)S(=O)(=O)NC6=O)n[nH]c4n3)C[C@@H]21 [Example 249, 6-(6-((1S,6R,7R)-7-(aminomethyl)-7-(2-fluorophenyl)-3-azabicyclo[4.1.0]heptan-3-yl)-1H-pyrazolo[3,4-b]pyrazin-3-yl)benzo[d]isothiazol-3(2H)-one 1,1-dioxide]
< 500 nM | < 1000 nM | Cc1cc(C(N)=O)ccc1-c1n[nH]c2nc(N3CC[C@@H]4[C@H](C3)[C@@]4(CN)c3ccccc3F)cnc12 [Example 250, 4-(6-((1S,6R,7R)-7-(aminomethyl)-7-(2-fluorophenyl)-3-azabicyclo[4.1.0]heptan-3-yl)-1H-pyrazolo[3,4-b]pyrazin-3-yl)-3-methylbenzamide]
< 500 nM | < 1000 nM | NC[C@]1(c2ccccc2F)[C@@H]2CCN(c3cnc4c(-c5ccc6c(c5)C(=O)NCC6)n[nH]c4n3)C[C@@H]21 [Example 251, 7-(6-((1S,6R,7R)-7-(aminomethyl)-7-(2-fluorophenyl)-3-azabicyclo[4.1.0]heptan-3-yl)-1H-pyrazolo[3,4-b]pyrazin-3-yl)-3,4-dihydroisoquinolin-1(2H)-one]
< 500 nM | < 1000 nM | NC[C@]1(c2ccccc2F)[C@@H]2CCN(c3cnc4c(-c5ccc6cccnc6c5)n[nH]c4n3)C[C@@H]21 [Example 252, ((1S,6R,7R)-7-(2-fluorophenyl)-3-(3-(quinolin-7-yl)-1H-pyrazolo[3,4-b]pyrazin-6-yl)-3-azabicyclo[4.1.0]heptan-7-yl)methanamine]
< 500 nM | < 1000 nM | NC[C@]1(c2ccccc2F)[C@@H]2CCN(c3cnc4c(-c5cc(Cl)c(C(N)=O)cc5F)n[nH]c4n3)C[C@@H]21 [Example 253, 4-(6-((1S,6R,7R)-7-(aminomethyl)-7-(2-fluorophenyl)-3-azabicyclo[4.1.0]heptan-3-yl)-1H-pyrazolo[3,4-b]pyrazin-3-yl)-2-chloro-5-fluorobenzamide]
< 500 nM | < 1000 nM | NC[C@]1(c2ccccc2F)[C@@H]2CCN(c3cnc4c(-c5ccc6cn[nH]c(=O)c6c5)n[nH]c4n3)C[C@@H]21 [Example 254, 7-(6-((1S,6R,7R)-7-(aminomethyl)-7-(2-fluorophenyl)-3-azabicyclo[4.1.0]heptan-3-yl)-1H-pyrazolo[3,4-b]pyrazin-3-yl)phthalazin-1(2H)-one]
